Results on eleven molecules are retold here after PMC10254444, “Targeting Myeloperoxidase Activity and Neutrophil ROS Production to Modulate Redox Process: Effect of Ellagic Acid and Analogues” (Molecules, 2023).

For data set [1] the following is noted: in mice; cited from earlier work.
The nature of another data set: Solubility. The class given is physicochemical.
Data set [2] in a line: ABTS radical cation assay. On the procedure:
The ABTS assay was based on the method described by Re et al.. For the generation of ABTS^•+ radicals, sodium persulfate (2.45 mM) aqueous solution was mixed with ABTS (7 mM) and incubated overnight in the dark to obtain a dark-colored solution. Stock solution of ABTS^•+ was then diluted by adding pure methanol (100%) to obtain an absorbance of 0.70 (±0.02) at 734 nm at 30 °C. To obtain more repetition, the ABTS assay was performed using a microplate reader (ThermoLabsystem, Finland). An aliquot of 2 µL of the tested compound (EA or analogue) was added to 198 µL of ABTS^•+, and the decrease in absorbance was monitored at 740 nm after 30 min [32]. During this reaction, the blue-green ABTS radical cation is converted back into its colorless neutral form in the presence of the potential antioxidant molecule. A control consisted of 2 µL of DMSO in 198 µL of ABTS^•+ solution. The reducing capacity was determined according to the formula:% inhibition = (Acontrol − ASample) × 100/AControl(1)

Details of data set [3]: method as in PMID 19015354. The settings on record: after intraperitoneal injection; cited from earlier work.
The nature of data set [4]: DPPH radical scavenging assay. On the procedure: The DPPH assay was performed according to the method developed by Brand-Williams et al., though slightly modified. A solution of 1 mM DPPH in absolute methanol was stirred for 40 min. Absorbance of the solution was adjusted to 0.650 ± 0.020 at 517 nm using fresh absolute methanol. For replicates, the DPPH assay was performed using a microplate reader. For this, 2 µL of EA taken as a standard or sample (EA analogue) were mixed with 198 µL of DPPH solution and incubated for 30 min in the dark covered with aluminum foil. When reacting with an antioxidant, the DPPH• radical is converted into DPPH, and its color changes from purple to yellow. The antioxidant effect may be easily evaluated by observing the decrease in visible absorption. The absorbance decrease was monitored at 510 nm for 30 min with a Multiskan Ascent 96-plate reader (ThermoLabsystem, Finland). A control consisted of 2 µL of DMSO in 198 µL of DPPH solution. A similar formula (Equation (1)) was applied to determine the DPPH radical-scavenging activity.

Data set [5] has as its target T1, Horseradish peroxidase (HRP) (Armoracia rusticana, UniProt P00433).
T1 construct: purchased Merck (Darmstadt, Germany)
T1 sequence (P00433 31-338 limits assumed): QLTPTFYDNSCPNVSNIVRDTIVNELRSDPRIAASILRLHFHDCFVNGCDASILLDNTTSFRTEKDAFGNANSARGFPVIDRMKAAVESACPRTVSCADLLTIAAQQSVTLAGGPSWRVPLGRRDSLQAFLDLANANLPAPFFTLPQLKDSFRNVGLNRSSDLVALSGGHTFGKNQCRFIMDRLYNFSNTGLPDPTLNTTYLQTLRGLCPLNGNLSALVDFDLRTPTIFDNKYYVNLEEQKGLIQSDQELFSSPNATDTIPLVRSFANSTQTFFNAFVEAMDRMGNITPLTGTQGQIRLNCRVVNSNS
Kind of data set: HRP-catalyzed oxidation of L012 (chemiluminescence). The class given is biochemical. The procedure:
[…] (HRP) reacts with hydrogen peroxide (H2O2), yielding “compound I (HRP^+.-Fe (IV=O))”, which is a reactive intermediate of HRP that is able to oxidize any potential reducing agent. Briefly, 2 μL of compound or reference molecule (ellagic acid) were incubated in phosphate buffer at pH 7.4 (153 μL, 50 mM) containing 5 μL HRP (100 µg/L), 20 μL L0-12 (10^−3 M), and 20 μL H2O2 (1 mM), and the chemiluminescence was immediately measured using a Fluoroskan Ascent 96-plate reader (ThermoLabsystem, Finland) at 37 °C for 30 min [32, 34]. The analysis was conducted in a 96-well microtiter plate. All the assays were performed in triplicate and repeated at least twice (N = 2; n = 6). The relative activity in terms of inhibition percentage of the tested compound or reference (ellagic acid) was compared to a control in the presence of DMSO taken as a solvent. The inhibition percentage was calculated using a similar formula (Equation (1)) as described above.

Data set [6] deals with T2, human myeloperoxidase (MPO) (Homo sapiens, UniProt P05164).
T2 construct: purchased Calbiochem Millipore
T2 sequence (P05164 49-745): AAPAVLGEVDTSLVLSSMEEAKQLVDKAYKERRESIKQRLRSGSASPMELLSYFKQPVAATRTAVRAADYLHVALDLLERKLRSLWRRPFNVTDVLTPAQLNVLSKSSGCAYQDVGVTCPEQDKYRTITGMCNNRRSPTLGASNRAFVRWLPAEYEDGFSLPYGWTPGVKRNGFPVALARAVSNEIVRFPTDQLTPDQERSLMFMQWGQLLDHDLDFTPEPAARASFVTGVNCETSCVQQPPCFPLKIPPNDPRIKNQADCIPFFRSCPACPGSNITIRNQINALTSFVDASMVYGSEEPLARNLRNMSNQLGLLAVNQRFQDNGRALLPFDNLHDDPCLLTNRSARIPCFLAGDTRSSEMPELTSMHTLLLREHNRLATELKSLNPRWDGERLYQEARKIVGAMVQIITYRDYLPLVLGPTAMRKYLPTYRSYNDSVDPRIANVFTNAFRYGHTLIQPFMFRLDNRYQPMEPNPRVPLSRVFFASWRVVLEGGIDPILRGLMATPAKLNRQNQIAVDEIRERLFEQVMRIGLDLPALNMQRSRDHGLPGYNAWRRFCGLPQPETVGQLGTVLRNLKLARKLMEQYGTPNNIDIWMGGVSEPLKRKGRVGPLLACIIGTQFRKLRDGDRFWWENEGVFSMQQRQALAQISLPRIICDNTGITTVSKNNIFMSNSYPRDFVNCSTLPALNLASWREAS
Description: MPO peroxidase activity, classical assay (Amplex Red). The class given is biochemical. The settings on record: concentration range 0.01 to 10 µM. The procedure:
(§1) Measurement of the peroxidase activity of MPO was performed by a classical enzymatic assay and by SIEFED assay as described by Nyssen et al.. The MPO solution was prepared with purified human MPO in dilution buffer (PBS 20 mM at pH 7.4 with 5 g/L BSA and 0.1% Tween-20). The solutions of EA or analogue, at final concentrations ranging from 10^−8 M to 10^−5 M, were incubated for 10 min with human MPO at a final concentration of 5 mU/mL before further use. The revelation of MPO activity was performed by monitoring the enzyme-catalyzed oxidation of Amplex Red in the presence of H2O2 (10 μM) and nitrite (4.5 mM) in phosphate buffer at pH 7.4.
After incubation, mixtures containing 100 μL of EA/analogue or vehicle (DMSO) and MPO were loaded into wells of microtiter plates (transparent), and the peroxidase activity was measured by adding 10 μL sodium nitrite solution (4.5 mM, final concentration) and 100 μL of the reactional solution containing 10 µM H2O2 and 40 µM Amplex® Red (AR) in phosphate buffer (50 mM) at pH 7.4. The oxidation of AR into the fluorescent resorufin adduct (λexcitation = 544 nm; λemission = 590 nm) was monitored for 30 min at 37 °C with a fluorescent plate reader (Fluoroskan Ascent, Fisher Scientific, Hampton, NH, USA). To eliminate the possibility of the artifact reactions that might arise from MPO activity or its natural substrate (H2O2), the direct reaction of ellagic acid or an analogue with H2O2 was performed in phosphate buffer (PBS) without the addition of human MPO.

Data set [7] deals with T2, human myeloperoxidase (MPO). Kind of data set: MPO activity by SIEFED assay. It is filed as biochemical. On the procedure: as §1
Samples with MPO and various concentrations of […] were prepared and incubated as with the classical assay. An amount of 100 μL of each mixture (MPO alone or MPO + EA/DMSO) was then loaded into the wells of a SIEFED microtiter plate coated with rabbit polyclonal antibodies (3 μg/mL) against human MPO and incubated for 2 h at 37 °C in darkness. After washing up the wells, the activity of the enzyme captured by the antibodies was measured by adding 10 μL sodium nitrite solution (4.5 mM, final concentration) and 100 μL of a reactional solution containing 10 μM H2O2 and 40 μM Amplex® in phosphate buffer (50 mM) at pH 7.4. The oxidation of Amplex® Red into the fluorescent adduct resorufin (λexcitation = 544 nm; λemission = 590 nm) was monitored for 30 min at 37 °C with a fluorescent plate reader (Fluoroskan Ascent, Fisher Scientific). As for the MPO direct assay, a control assay set as the relative value of MPO activity was performed with purified MPO in the presence of PBS instead of the samples of EA or analogue dissolved in DMSO. In this SIEFED assay, MPO was bonded by the antibodies into the wells, and EA/analogue was discarded in the washing step before starting the measurement of the enzymatic activity. For both MPO assays, the inhibition percentage was calculated using a similar formula (Equation (1)) as described above.

Each structure is given as a SMILES string.

By IC50 is commonly meant the midpoint of a concentration-inhibition curve. Low readings indicate inhibition by little substance, high ones a need for much substance.

Regarding `O=c1oc2c(O)c(O)cc3c(=O)oc4c(O)c(O)cc1c4c23` [1a, 2,3,7,8-Tetrahydroxy [1]benzopyrano [5,4,3-cde][1]benzopyran-5,10-dione, reference compound], the oral bioavailability in data set [1] is below 30%. In addition, the “solubility (in words)” value in “Solubility” is given as “low hydrosolubility”. Besides, the IC50 in data set [2] was found to be 6.01 ± 0.26 µM; in data set [4], 5.64 ± 0.47 µM. The “curative activity in vivo (in words)” value in data set [3] was “curative activity in vivo”. Also, the “HRP inhibiting activity (in words)” value in data set [5] is on record as “strong inhibiting activity”.
On to `O=C(OCCCOC(=O)c1cc(O)c(O)c(O)c1)c1cc(O)c(O)c(O)c1` [compound 2], for which the results for the IC50 in data set [2], in data set [4] and in data set [5] were 5.5 ± 0.16 µM, 2.86 ± 0.13 µM and 2.28 ± 0.11 µM, respectively.
Turning to `O=C(OCCCOC(=O)c1cc(O)c(O)c(O)c1)c1cc(O)cc(O)c1` [compound 3, 3-((3,5-dihydroxybenzoyl)oxy)propyl 3,4,5-trihydroxybenzoate], in data set [6], the “MPO inhibition (classical assay)” value is given as 98%. For the same molecule, the half-inhibitory concentration (IC50) worked out at 5.52 ± 0.34 µM in data set [2], 5.78 ± 0.13 µM in data set [4] and 3.19 ± 0.07 µM in data set [5].
As for `O=C(OCCOC(=O)c1cc(O)c(O)c(O)c1)c1cc(O)c(O)c(O)c1` [compound 4], the figures for the IC50 in data set [2], in data set [4] and in data set [5] were 5.77 ± 0.01 µM, 3.36 ± 0.25 µM and 2.84 µM, respectively.
Taken in the same sequence, the figures for `O=C(OCCCOC(=O)c1cc(O)c(O)c(O)c1)c1ccc(O)c(O)c1` [compound 5, 3-((3,4-dihydroxybenzoyl)oxy)propyl 3,4,5-trihydroxybenzoate] were 5.48 ± 0.23 µM, 4.24 ± 0.36 µM and 3.73 ± 0.21 µM.
Take `O=C(Nc1ccc(OC(=O)c2cc(O)c(O)c(O)c2)cc1)c1cc(O)c(O)c(O)c1` [compound 7, 4-(3,4,5-trihydroxybenzamido)phenyl 3,4,5-trihydroxybenzoate]: the “MPO inhibition (classical assay)” value in data set [6] is listed as 94%. The IC50 in data set [2] worked out at 4.68 ± 0.13 µM; in data set [4], 3.14 ± 0.72 µM; in data set [5], 5.81 ± 0.49 µM. For the same molecule, in data set [5], the “HRP inhibiting activity (in words)” value is recorded as “reduced antioxidant effect”. In addition, the “MPO activity, SIEFED assay (in words)” value in data set [7] is reported as “superior to ellagic acid”.
As for `O=C(OCCCCOC(=O)c1cc(O)c(O)c(O)c1)c1cc(O)c(O)c(O)c1` [compound 8], the results for the IC50 in data set [2], in data set [4] and in data set [5] were 6.97 ± 0.04 µM, 5.96 ± 0.06 µM and 1.48 ± 1.17 µM, respectively.
Taken in the same sequence, the figures for `O=C(NCCCOC(=O)c1cc(O)c(O)c(O)c1)c1cc(O)c(O)c(O)c1` [compound 9, 3-(3,4,5-trihydroxybenzamido) propyl 3,4,5-trihydroxybenzoate] were 6.34 ± 0.39 µM, 5.82 ± 0.35 µM and 1.81 ± 0.18 µM.
`O=C(Nc1cccc(OC(=O)c2cc(O)c(O)c(O)c2)c1)c1cc(O)c(O)c(O)c1` [compound 10, 3-(3,4,5-trihydroxybenzamido)phenyl 3,4,5-trihydroxybenzoate]: the IC50 came to 6.22 ± 0.16 µM in data set [2], 5.27 ± 0.29 µM in data set [4] and 1.02 ± 0.09 µM in data set [5]. Moreover, in data set [7], the “MPO activity, SIEFED assay (in words)” value is reported as “superior to ellagic acid”.
As for `O=C(NCCCNC(=O)c1cc(O)c(O)c(O)c1)c1cc(O)c(O)c(O)c1` [compound 12], the IC50 in data set [2] worked out at 5.86 ± 0.18 µM; in data set [4], 3.7 ± 0.45 µM; in data set [5], 3.06 ± 0.07 µM. In addition, the “HRP inhibiting activity (in words)” value in data set [5] is listed as “very good inhibition”.
Regarding `O=C(OCCCOC(=O)c1cc(O)c(O)c(O)c1)c1ccccc1` [compound 13, 3-(benzoyloxy)propyl 3,4,5-trihydroxybenzoate], the figures for the IC50 in data set [2], in data set [4] and in data set [5] were 6 ± 0.31 µM, 4.91 ± 0.26 µM and 5.46 ± 0.01 µM, respectively.
